Measurements reported in patent publication US20260102344A1, “METERED DOSE INHALERS AND SUSPENSION COMPOSITIONS” (Kindeva Drug Delivery L.P., priority 2021, published 2026).
Converted amounts (≈) assume the structure as drawn. Each block holds one molecule with its values, some of them ahead of it.

Legend:
Type in all cases: physicochemical
[1] = Fine particle fraction by Fast Screening Impactor (FSI), fluticasone propionate in HFO-1234ze(E) without ethanol; conditions: HFO-1234ze(E) suspension 2 mg/mL, no ethanol
Protocol: A suspension of micronized fluticasone propionate was prepared in HFO-1234ze(E) with no additional excipients, including ethanol. Each suspension included an amount of fluticasone propionate (2 mg/mL) to provide a nominal dose of […]. Each suspension was filled into FEP coated canisters and crimped with a metering valve and tested with a KINDEVA actuator.
When tested with KINDEVA actuators with exit orifice diameters of 0.3 mm, 0.22 mm, and 0.18 mm using a Fast Screening Impactor (FSI), it was observed that corresponding FPF of 35%, 43%, and 50% were achieved.

[2] = Aerodynamic particle size measurement, fluticasone propionate in HFO-1234ze(E); conditions: HFO-1234ze(E) suspension 2 mg/mL, 50-μL valve, 0.5 mm actuator
Protocol: Suspensions of micronized fluticasone propionate were prepared in HFO-1234ze(E). The nominal concentration of fluticasone propionate in each suspension was 2 mg/mL. A first suspension included 0% ethanol. A second suspension included 2% ethanol by weight. A third suspension included 5% ethanol by weight. A fourth suspension included 10% ethanol by weight.
Each suspension was filled into an FEP-coated canister and fitted with a 50-μL valve. The suspensions were sonicated for 10 minutes to disperse the fluticasone propionate. The suspensions were tested using a KINDEVA actuator with a 0.5 mm exit orifice diameter.
For each suspension, FPM, median mass aerodynamic diameter (MMAD), FPF, metered dose (ex-valve), and delivered dose (ex-actuator) were measured.

[3] = Saturated solubility of fluticasone propionate in HFO-1234ze(E) with ethanol; conditions: saturated solubility in HFO-1234ze(E), no additional excipients; for solubility: HFO-1234ze(E) propellant with ethanol, organic solvent or mixture, thermodynamic from solid
Protocol: The solubility of fluticasone propionate in each suspension was measured by content assay following filtration of the excess non-dissolved drug.

[4] = Mometasone solubility in HFO-1234ze(E) (Example 10)
[5] = Saturated solubility, mometasone furoate in HFO-1234ze(E) (Example 11)
Protocol: Suspensions of micronized mometasone furoate were prepared in HFO-1234ze(E). […]. A second suspension included 0.5% ethanol by weight. A third suspension included 1% ethanol by weight. A fourth suspension included 2% ethanol by weight.
Devices were prepared by weighing mometasone furoate in FEP coated canisters fitted with a 50-μL valve, a Mk6s actuator, and dose counter. The valve was crimped on, and the propellant was pressure filled through the valve. The units were sonicated for 10 minutes to fully disperse the mometasone furoate. Through life dosing was tested for each suspension 3 units with the Mk6s actuator having 0.5-mm exit orifice and 0.8-mm jet length. Saturated solubility was also measured for each suspension. The results are shown in Example 10.

[6] = Delivered dose and fine particle mass, salbutamol sulfate in HFO-1234ze(E) with 5.0% or 15% ethanol; conditions: HFO-1234ze(E) suspension 1.91 mg/mL, 63-μL APTAR, mean of triplicate
Protocol: Each suspension was filled into FEP coated canisters, crimped with a valve, and coupled to […] actuator for testing. Fine particle mass and delivered dose were measured for each suspension.

[7] = Delivered dose and particle size measurement, salbutamol sulfate in HFO-1234ze(E); conditions: HFO-1234ze(E) suspension 1.91 mg/mL, nominal 100 μg/actuation, 63-μL valve, 0.4 mm actuator
Protocol: A first suspension included no ethanol. […] A fifth suspension included 15% ethanol by weight. […] Each suspension was filled into FEP coated canisters, crimped with a 63-μL valve and tested with a […] actuator having an exit orifice diameter of 0.4 mm for testing. The fine particle mass (FPM), median mass aerodynamic diameter (MMAD), fine particle fraction (FPF), metered dose (ex-valve), and delivered dose (ex-act) were measured for each suspension.

FPF ([1]; actuator exit orifice 0.18 mm): 50%
FPF ([1]; actuator exit orifice 0.22 mm): 43%
FPF ([1]; actuator exit orifice 0.3 mm): 35%
FPF ([2]; ethanol 0% by weight): 60.6%
FPM ([2]; ethanol 0% by weight): 5.3 μg/actuation
MMAD ([2]; ethanol 0% by weight): 5.0 μm
FPF ([2]; ethanol 2% by weight): 43.8%
FPM ([2]; ethanol 2% by weight): 30.0 μg/actuation
MMAD ([2]; ethanol 2% by weight): 5.4 μm
FPF ([2]; ethanol 5% by weight): 28.9%
FPM ([2]; ethanol 5% by weight): 27.9 μg/actuation
MMAD ([2]; ethanol 5% by weight): 2.4 μm
FPF ([2]; ethanol 10% by weight): 19.6%
FPM ([2]; ethanol 10% by weight): 18.7 μg/actuation
MMAD ([2]; ethanol 10% by weight): 2.1 μm
solubility ([3]; ethanol 0% by weight): 3.2 µg/mL (≈ 6.39 µM)
solubility ([3]; ethanol 2% by weight): 30.3 µg/mL (≈ 60.5 µM)
solubility ([3]; ethanol 5% by weight): 135 µg/mL (≈ 269 µM)
Mean fluticasone propionate solubility ([3]; ethanol 1% by weight): 12.4 µg/mL
Mean fluticasone propionate solubility ([3]; ethanol 10% by weight): 367.5 µg/mL
Molecule: CCC(=O)O[C@]1(C(=O)SCF)[C@H](C)C[C@H]2[C@@H]3C[C@H](F)C4=CC(=O)C=C[C@]4(C)[C@@]3(F)[C@@H](O)C[C@@]21C [fluticasone propionate]

Mean mometasone solubility ([4]; ethanol 0% by weight): 0.8 µg/mL
Mean mometasone solubility ([4]; ethanol 1% by weight): 7.6 µg/mL
Saturated solubility ([5]; ethanol 0%): 0.8 µg/mL
Saturated solubility ([5]; ethanol 2%): 7.6 µg/mL
Molecule: C[C@@H]1C[C@H]2[C@@H]3CCC4=CC(=O)C=C[C@]4(C)[C@@]3(Cl)[C@@H](O)C[C@]2(C)[C@@]1(OC(=O)c1ccco1)C(=O)CCl [mometasone furoate]

Fine particle fraction ([6]; ethanol 5.0%): 38%
Fine particle fraction ([6]; ethanol 15%): 20%
FPF (fine particle fraction) ([7]; ethanol 0% by weight): 57.5%
FPM (fine particle mass) ([7]; ethanol 0% by weight): 45.3 μg/act
MMAD (median mass aerodynamic diameter) ([7]; ethanol 0% by weight): 1.9 μm
FPF (fine particle fraction) ([7]; ethanol 2% by weight): 48.5%
FPM (fine particle mass) ([7]; ethanol 2% by weight): 45.9 μg/act
MMAD (median mass aerodynamic diameter) ([7]; ethanol 2% by weight): 2.0 μm
FPF (fine particle fraction) ([7]; ethanol 5% by weight): 39.1%
FPM (fine particle mass) ([7]; ethanol 5% by weight): 36.8 μg/act
MMAD (median mass aerodynamic diameter) ([7]; ethanol 5% by weight): 1.9 μm
FPF (fine particle fraction) ([7]; ethanol 10% by weight): 27.6%
FPM (fine particle mass) ([7]; ethanol 10% by weight): 25.4 μg/act
MMAD (median mass aerodynamic diameter) ([7]; ethanol 10% by weight): 2.0 μm
FPF (fine particle fraction) ([7]; ethanol 15% by weight): 19.6%
FPM (fine particle mass) ([7]; ethanol 15% by weight): 18.5 μg/act
MMAD (median mass aerodynamic diameter) ([7]; ethanol 15% by weight): 2.0 μm
Molecule: salbutamol sulfate
